From patent publication US12642773B2, “Coated drug compositions and methods of preparing the same” (Applied Materials, Inc., priority 2020, dated 2026)
≈ marks a conversion by molar mass, not a printed value.

Experiment: Solubility of ezetimibe
Format: physicochemical
Source text: Crystallization decreases the solubility of ezetimibe. […] In contrast, the release rate from coated 50% drug loading ASD particles barely changed.

Row | solubility | SMILES
1 | 20.2 ± 0.4 µg/mL (≈ 49.3 µM) | O=C1[C@H](CC[C@H](O)c2ccc(F)cc2)[C@@H](c2ccc(O)cc2)N1c1ccc(F)cc1 [amorphous ezetimibe, ezetimibe]
2 | 0.8 ± 0.3 µg/mL (≈ 1.95 µM) | O=C1[C@H](CC[C@H](O)c2ccc(F)cc2)[C@@H](c2ccc(O)cc2)N1c1ccc(F)cc1 [crystalline ezetimibe, ezetimibe]
